Measurements from patent US10294202B2, “Pyrrolidinones as herbicides” (FMC Corporation, priority 2013, dated 2019).

How the values were obtained:
Test in all cases: Test E preemergence herbicide test
Parameters in all cases: key: 0 = no effect, 100 = complete control
field bindweed = format: in vivo, Convolvulus arvensis
From the text: (§1) Seeds of plant species selected from corn (Zea mays), soybean (Glycine max), velvetleaf (Abutilon theophrasti), lambsquarters (Chenopodium album), wild poinsettia (Euphorbia heterophylla), pigweed, palmer (palmer pigweed, Amaranthus palmeri), waterhemp (common waterhemp, Amaranthus rudis), surinam grass (Brachiaria decumbens), crabgrass, large (large crabgrass, Digitaria sanguinalis), crabgrass, Brazil (Brazilian crabgrass, Digitaria horizontalis), panicum, fall (fall panicum, Panicum dichotomiflorum), foxtail, giant (giant foxtail, Setaria faberii), foxtail, green (green foxtail, Setaria viridis), goosegrass (Eleusine indica), johnsongrass (Sorghum halepense), ragweed (common ragweed, Ambrosia elatior), barnyardgrass (Echinochloa crus-galli), sandbur (southern sandbur, Cenchrus echinatus), arrowleaf […] rhombifolia), ryegrass, Italian (Italian ryegrass, Lolium multiflorum), dayflower, VA (Virginia dayflower, Commelina virginica), field bindweed (Convolvulus arvensis), morningglory (Ipomoea coccinea), nightshade (eastern black nightshade, Solanum ptycanthum), kochia (Kochia scoparia), nutsedge, yellow (yellow nutsedge, Cyperus esculentus), cocklebur (common cocklebur, Xanthium strumarium), smartweed (ladysthumb smartweed, Polygonum Persicaria) and beggarticks (hairy beggarticks, Bidens pilosa), were planted into a silt loam soil and treated preemergence with test chemicals formulated in a non-phytotoxic solvent mixture which included a surfactant. Treated plants and controls were maintained in a greenhouse for 21 days, after which time all species were compared to controls and visually evaluated. Plant response ratings, summarized in Table E, are based on a scale of 0 to 100 where 0 is no effect and 100 is complete control. A dash (-) response means no test result.

foxtail, green = format: in vivo, Setaria viridis
From the text: as §1

morningglory = format: in vivo, Ipomoea coccinea
From the text: as §1

panicum, fall = format: in vivo, Panicum dichotomiflorum
From the text: as §1

crabgrass, large = format: in vivo, Digitaria sanguinalis
From the text: as §1

velvetleaf = format: in vivo, Abutilon theophrasti
From the text: as §1

waterhemp = format: in vivo, Amaranthus rudis
From the text: as §1

kochia = format: in vivo, Kochia scoparia
From the text: as §1

wild poinsettia = format: in vivo, Euphorbia heterophylla
From the text: as §1

O=C1NCC(c2cccc(Br)c2)C1C(=O)Nc1ccccc1F (stereo not drawn) [Compound 66]
Plant response rating, Field Bindweed (field bindweed; 16 g ai/ha): 0
Plant response rating, Field Bindweed (field bindweed; 31 g ai/ha): 0
Plant response rating, Field Bindweed (field bindweed; 62 g ai/ha): 0
Plant response rating, Field Bindweed (field bindweed; 125 g ai/ha): 0
Plant response rating, Field Bindweed (field bindweed; 250 g ai/ha): 0
Plant response rating, Foxtail, Green (foxtail, green; 16 g ai/ha): 0
Plant response rating, Foxtail, Green (foxtail, green; 31 g ai/ha): 0
Plant response rating, Foxtail, Green (foxtail, green; 62 g ai/ha): 0
Plant response rating, Foxtail, Green (foxtail, green; 125 g ai/ha): 35
Plant response rating, Foxtail, Green (foxtail, green; 250 g ai/ha): 60
Plant response rating, Morningglory (morningglory; 16 g ai/ha): 0
Plant response rating, Morningglory (morningglory; 31 g ai/ha): 0
Plant response rating, Morningglory (morningglory; 62 g ai/ha): 0
Plant response rating, Morningglory (morningglory; 125 g ai/ha): 0
Plant response rating, Morningglory (morningglory; 250 g ai/ha): 0
Plant response rating, Panicum, Fall (panicum, fall; 16 g ai/ha): 0
Plant response rating, Panicum, Fall (panicum, fall; 31 g ai/ha): 0
Plant response rating, Panicum, Fall (panicum, fall; 62 g ai/ha): 0
Plant response rating, Panicum, Fall (panicum, fall; 125 g ai/ha): 0
Plant response rating, Panicum, Fall (panicum, fall; 250 g ai/ha): 0
Plant response rating, Crabgrass, Large (crabgrass, large; 16 g ai/ha): 0
Plant response rating, Crabgrass, Large (crabgrass, large; 31 g ai/ha): 10
Plant response rating, Crabgrass, Large (crabgrass, large; 62 g ai/ha): 75
Plant response rating, Crabgrass, Large (crabgrass, large; 125 g ai/ha): 90
Plant response rating, Crabgrass, Large (crabgrass, large; 250 g ai/ha): 98
Plant response rating, Velvetleaf (velvetleaf; 16 g ai/ha): 0
Plant response rating, Velvetleaf (velvetleaf; 31 g ai/ha): 0
Plant response rating, Velvetleaf (velvetleaf; 62 g ai/ha): 0
Plant response rating, Velvetleaf (velvetleaf; 125 g ai/ha): 0
Plant response rating, Velvetleaf (velvetleaf; 250 g ai/ha): 0
Plant response rating, Waterhemp (waterhemp; 16 g ai/ha): 0
Plant response rating, Waterhemp (waterhemp; 31 g ai/ha): 0
Plant response rating, Waterhemp (waterhemp; 62 g ai/ha): 0
Plant response rating, Waterhemp (waterhemp; 125 g ai/ha): 0
Plant response rating, Waterhemp (waterhemp; 250 g ai/ha): 0
Plant response rating, Kochia (kochia; 16 g ai/ha): 0
Plant response rating, Kochia (kochia; 31 g ai/ha): 0
Plant response rating, Kochia (kochia; 62 g ai/ha): 0
Plant response rating, Kochia (kochia; 125 g ai/ha): 0
Plant response rating, Kochia (kochia; 250 g ai/ha): 0
Plant response rating, Poinsettia, Wild (wild poinsettia; 16 g ai/ha): 0
Plant response rating, Poinsettia, Wild (wild poinsettia; 31 g ai/ha): 0
Plant response rating, Poinsettia, Wild (wild poinsettia; 62 g ai/ha): 0
Plant response rating, Poinsettia, Wild (wild poinsettia; 125 g ai/ha): 0
Plant response rating, Poinsettia, Wild (wild poinsettia; 250 g ai/ha): 20
